# Laboratory results: patent publication US11744898B2, “Multi-arm polymer conjugates of TLR agonist compounds and related immunotherapeutic treatment methods” (Nektar Therapeutics, priority 2017, dated 2023)
# Where two headings read alike, the source gives them in different places.
# Key:
# CT26 tumor cells = test: Murine CT-26 colon tumor model, two flanks; 800 μg 4-arm-PEG20k-CM-N-R848 intra-/peritumorally day 0, RSLAIL-2 0.8 mg/kg i.v. days 0, 9, 18; assay type: in vivo, Balb/c mice
# TLR7 pathway = conditions: 2 hours and 6 hours following treatment with Compound 6
# Procedure: Cytokine analysis (in CT26 tumor-bearing mice): Tumor and plasma samples were obtained at multiple time points following administration for cytokine analysis. RNA was isolated from treated tumors to assess induction of type I interferon- and NFκB-dependent gene expression. A panel of pro-inflammatory cytokines was measured from tumor tissue and plasma by multiplex protein measurement assay.
# TLR7/8 = test: TLR7/8-dependent cytokine production in plasma after single 10 μg intratumoral administration, CT26 tumor bearing mice; assay type: in vivo, Balb/c mice
# Procedure: Hank's Balanced Salt Solution) was administered intratumorally to Balb/c mice bearing CT26 tumor. […] (Conjugate doses and concentrations are expressed based on TLR 7/8 agonist (e.g., resiquimod or other TLR 7/8 agonist) content, wherein the mass of the TLR 7/8 agonist is expressed independent of PEG mass). Plasma was collected at pre-determined time points for analysis of level of IFN-gamma, IL-2, IL-4, IL5, IL-6, IL-1 beta, IL-10, IL-12p70, KC/GRO, TNF-alpha, and IFN-alpha. For assessing IFN-gamma, IL-2, IL-4, IL5, IL-6, IL-1 beta, IL-10, IL-12p70, KC/GRO, and TNF alpha, an electrochemiluminescence assay was performed on duplicate samples using capture antibody precoated 96 well multispot plates from Meso Scale Discovery (MSD; Gaithersburg, Md., US). […] Plates were immediately read using SECTOR Imager 2400 and data was quantitated using Discovery Workbench software version 4.0 (MSD, Gaithersburg, Md., US). Mouse IFN alpha was measured with the Verikine mouse Interferon-Alpha ELISA kit (PBL, Piscataway, N.J., USA), according to the instructions of the manufacturer. After the addition of a stop solution, the absorbance at 450 nm was determined using BioTek μQuant microplate reader (Biotek; Winooski, Vt., USA). The ELISA data was quantitated using Biotek Gen5 software (Biotek; Winooski, Vt., USA). Data are represented as the mean of the fold-change of replicates.
# hTLR7 = target: T1, hTLR7 (Homo sapiens, UniProt Q9NYK1); test: SEAP reporter gene assay in HEK293 cells stably transfected with human TLR receptor; assay type: cell-based; conditions: downstream hTLR7 and hTLR8
# T1 construct: expressed in transfected cells; host or cells: HEK293
# T1 sequence (Q9NYK1 27-1049): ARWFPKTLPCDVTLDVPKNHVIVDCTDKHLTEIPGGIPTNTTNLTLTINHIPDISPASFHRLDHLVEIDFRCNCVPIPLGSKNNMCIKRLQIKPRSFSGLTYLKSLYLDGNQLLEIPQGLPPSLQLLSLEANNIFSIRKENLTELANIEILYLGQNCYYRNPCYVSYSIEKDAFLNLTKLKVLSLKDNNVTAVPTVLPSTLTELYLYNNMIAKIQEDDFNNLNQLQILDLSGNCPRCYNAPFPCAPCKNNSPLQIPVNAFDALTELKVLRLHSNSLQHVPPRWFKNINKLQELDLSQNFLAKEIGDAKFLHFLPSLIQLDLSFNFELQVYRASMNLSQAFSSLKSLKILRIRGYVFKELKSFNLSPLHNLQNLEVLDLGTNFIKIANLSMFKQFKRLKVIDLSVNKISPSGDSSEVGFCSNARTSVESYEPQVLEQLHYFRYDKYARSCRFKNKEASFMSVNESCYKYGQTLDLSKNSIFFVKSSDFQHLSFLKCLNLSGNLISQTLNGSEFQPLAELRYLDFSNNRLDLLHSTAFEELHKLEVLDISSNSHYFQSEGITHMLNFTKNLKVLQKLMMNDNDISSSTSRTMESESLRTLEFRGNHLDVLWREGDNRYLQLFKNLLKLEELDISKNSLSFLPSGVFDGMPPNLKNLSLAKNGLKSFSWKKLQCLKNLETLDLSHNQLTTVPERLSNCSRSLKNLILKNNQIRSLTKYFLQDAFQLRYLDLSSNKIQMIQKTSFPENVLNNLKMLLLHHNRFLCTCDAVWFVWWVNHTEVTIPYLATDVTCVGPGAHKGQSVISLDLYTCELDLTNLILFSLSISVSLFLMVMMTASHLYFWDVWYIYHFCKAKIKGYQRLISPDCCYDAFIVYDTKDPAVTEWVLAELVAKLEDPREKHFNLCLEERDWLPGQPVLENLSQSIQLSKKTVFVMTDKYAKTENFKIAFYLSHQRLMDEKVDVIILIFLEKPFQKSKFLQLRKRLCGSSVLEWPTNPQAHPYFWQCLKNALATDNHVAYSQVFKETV
# Source text: Parental cell lines (Null1 and Null1K, stably transfected with the SEAP reports but without hTLR receptor expression) were used as negative controls.
# [1] = system: proinflammatory cytokines IFNα, IFNγ, TNFα, IL-6 and IL-12; test: Plasma cytokine induction after Compound 6 or resiquimod with staggered RSLAIL-2 in CT26 model; assay type: in vivo, Balb/c mice
# Procedure: The concentration of proinflammatory cytokines IFNα, IFNγ, TNFα, IL-6 and IL-12 was determined in plasma by multiplex protein measurement assay at indicated time points post dose.
# [2] = system: bilateral CT26 subcutaneous tumors
# [3] = 2 hours after single 10 μg intratumoral administration
# [4] = 6 hours after single 10 μg intratumoral administration
# [5] = plasma, 10 μg intra/peritumoral
# Source text for EMT6 tumor cells: In vivo model: Mice used were ˜10 weeks old female Balb/c strain with 2 million EMT6 tumor cells implanted on each flank. Cells were allowed to mature into tumors for 7 days reaching a volume of 75-150 mm^3 volume.
# Measurements: Tumor volumes were collected by caliper measurements 2-3 times per week and calculated using formula: L×W^2/2 where L is tumor length and W is tumor width.
substance,measurement,setting,value
4-arm-PEG20k-CM-N—R848 [Compound 1],Survival Proportions,CT26 tumor cells; day 0 after treatment start,100%
same,Survival Proportions,CT26 tumor cells; day 12 after treatment start,80%
same,Survival Proportions,CT26 tumor cells; day 16 after treatment start,70%
same,Survival Proportions,CT26 tumor cells; day 19 after treatment start,40%
same,Survival Proportions,CT26 tumor cells; day 21 after treatment start,30%
same,Survival Proportions,CT26 tumor cells; day 47 after treatment start (end of experiment),30%
same,animals with a complete response (both treated and untreated side tumors eliminated),"CT26 tumor cells; end of experiment, day 47",20%
same,animals with a partial response (one of the two tumors eradicated),"CT26 tumor cells; end of experiment, day 47",10%
4-arm-PEG20k-CM-glycine-N-R848 [Compound 6],"concentration of systemic cytokines compared with tumor (IL-6, KC/GRO, TNF-α, IL-1β, IL-5, IFN-α, IFN-γ, IL-2, IL-12p70)",TLR7 pathway,significantly less than that in the tumor
same,IFNa fold change (treated/vehicle),TLR7/8; [3],+ (+<50)
same,IL6 fold change (treated/vehicle),TLR7/8; [3],++ (50≤++<200)
same,IL12 fold change (treated/vehicle),TLR7/8; [3],+ (+<50)
same,KC/GRO fold change (treated/vehicle),TLR7/8; [3],+ (+<50)
same,TNFa fold change (treated/vehicle),TLR7/8; [3],+ (+<50)
same,IFNg fold change (treated/vehicle),TLR7/8; [4],+++ (10≤+++<20)
same,IL10 fold change (treated/vehicle),TLR7/8; [4],+ (+<5)
same,fold higher concentration for reporter activation compared to resiquimod,hTLR7,> 20 fold
same,"induction of cytokines in plasma, in words",[1]; 1 μg single intra/peritumoral dose,very modest induction of all cytokines in plasma
same,"pro-inflammatory cytokine induction in blood, in words",[1]; 10 μg single intra/peritumoral dose,robust pro-inflammatory cytokine induction in blood
same,time of peak level of IFN-γ,[1]; [5],6 h
same,"time of peak levels of IFNα, TNFα, IL-6 and IL-12",[1]; [5],2 h
same,CD8+ T cells in tumors,"[2]; after combination treatment with RSLAIL-2 (0.8 mg/kg i.v. four days after Compound 6), day 7",selective Compound 6-dose dependent increase
same,relative fraction of regulatory T cells in tumors,"[2]; after combination treatment with RSLAIL-2, day 7",decreased dramatically
same,CD8:Treg ratio in the blood,[2]; both treatment groups (10 μg or 0.1 μg) after RSLAIL-2,overall reduction
same,intratumoral neutrophils in treated tumors,"[2]; one day after treatment, 10 μg dose",increase in intratumoral neutrophils
same,Survival Proportions,EMT6 tumor cells; day 0 after treatment start,++++ (75%≤++++<100%)
same,Survival Proportions,EMT6 tumor cells; day 3 after treatment start,++++ (75%≤++++<100%)
same,Survival Proportions,EMT6 tumor cells; day 8 after treatment start,++++ (75%≤++++<100%)
same,Survival Proportions,EMT6 tumor cells; day 13 after treatment start,++++ (75%≤++++<100%)
same,Survival Proportions,EMT6 tumor cells; day 15 after treatment start,++++ (75%≤++++<100%)
same,Survival Proportions,EMT6 tumor cells; day 20 after treatment start,+++ (50%≤+++<75%)
same,Survival Proportions,EMT6 tumor cells; day 27 after treatment start,++ (25%≤++<50%)
same,Survival Proportions,EMT6 tumor cells; day 34 after treatment start,+ (0%≤+<25%)
same,Survival Proportions,EMT6 tumor cells; day 42 after treatment start,+ (0%≤+<25%)
same,Survival Proportions,EMT6 tumor cells; day 48 after treatment start,+ (0%≤+<25%)
same,Survival Proportions,EMT6 tumor cells; day 55 after treatment start,none
same,survival of the animals,EMT6 tumor cells; end of the study at day 55 after commencement of dosing,no surviving animals
